The supplement of paper PMC8612539
Values after ≈ are worked out from the molar mass of the structure shown.

Tests used:
Enterococcus spp. = test: minimum inhibitory concentration (MIC)
Procedure: (§1)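 Broth microdilution MIC (Sensititre BOPO7F bovine plate, CLSI methods) of 19 antimicrobials against field isolates of P. multocida, M. haemolytica, H. somni (deep nasopharyngeal swabs) and E. coli, Enterococcus spp. (rectal swabs) from weaned dairy heifers. Incubation 16-24 h at 35 C. MIC is the lowest concentration preventing visible growth. Values with <= or > lie at the tested range limits. Trimethoprim-sulfamethoxazole is given as the trimethoprim component of a 1:19 mixture.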

Pasteurella multocida = test: minimum inhibitory concentration (MIC)
Procedure: as §1

CC[C@H]1OC(=O)C[C@@H](O)[C@H](C)[C@@H](O[C@@H]2O[C@H](C)[C@@H](O)[C@H](N(C)C)[C@H]2O)[C@@H](CCN2C[C@H](C)C[C@H](C)C2)C[C@@H](C)C(=O)/C=C/C(C)=C/[C@@H]1CO[C@@H]1O[C@H](C)[C@@H](O)[C@@H](OC)[C@H]1OC [Tilmicosin]
minimum inhibitory concentration [µg/mL]
Conditions | Enterococcus spp. | Pasteurella multocida
isolate (source animal id): 2 | 8 (≈ 9.2 µM) | –
isolate (source animal id): 10 | – | > 16
isolate (source animal id): 11 | – | > 16
isolate (source animal id): 12 | – | > 16
isolate (source animal id): 19 | – | > 16
isolate (source animal id): 23 | – | > 16
isolate (source animal id): 26 | – | > 16
isolate (source animal id): 35 | > 16 | –
isolate (source animal id): 42 | 8 (≈ 9.2 µM) | –
isolate (source animal id): 44 | 8 (≈ 9.2 µM) | –
isolate (source animal id): 79 | 8 (≈ 9.2 µM) | –
isolate (source animal id): 88 | 8 (≈ 9.2 µM) | –
isolate (source animal id): 91 | 8 (≈ 9.2 µM) | –
isolate (source animal id): 92 | 16 (≈ 18.4 µM) | –
isolate (source animal id): 98 | – | > 16
isolate (source animal id): 104 | – | > 16
isolate (source animal id): 111 | 8 (≈ 9.2 µM) | –
isolate (source animal id): 115 | – | > 16
isolate (source animal id): 117 | – | > 16
isolate (source animal id): 118 | – | > 16
isolate (source animal id): 121 | – | > 16
isolate (source animal id): 122 | > 16 | –
isolate (source animal id): 123 | 8 (≈ 9.2 µM) | –
isolate (source animal id): 124 | – | > 16
isolate (source animal id): 125 | – | > 16
isolate (source animal id): 128 | – | > 16
isolate (source animal id): 131 | – | > 16
isolate (source animal id): 133 | 8 (≈ 9.2 µM) | –
isolate (source animal id): 135 | – | > 16
isolate (source animal id): 136 | – | > 16
isolate (source animal id): 140 | – | > 16
isolate (source animal id): 144 | – | > 16
isolate (source animal id): 146 | – | > 16
isolate (source animal id): 150 | – | > 16
isolate (source animal id): 151 | – | > 16
isolate (source animal id): 153 | – | > 16
isolate (source animal id): 155 | – | > 16
isolate (source animal id): 157 | – | 16 (≈ 18.4 µM)
isolate (source animal id): 158 | > 16 | –
isolate (source animal id): 160 | – | > 16
isolate (source animal id): 164 | – | > 16
isolate (source animal id): 165 | – | > 16
isolate (source animal id): 167 | – | 8 (≈ 9.2 µM)
isolate (source animal id): 168 | 16 (≈ 18.4 µM) | > 16
isolate (source animal id): 169 | 16 (≈ 18.4 µM) | 4 (≈ 4.6 µM)
isolate (source animal id): 170 | – | 16 (≈ 18.4 µM)
isolate (source animal id): 171 | 16 (≈ 18.4 µM) | 8 (≈ 9.2 µM)
isolate (source animal id): 172 | – | 8 (≈ 9.2 µM)
isolate (source animal id): 173 | – | > 16
isolate (source animal id): 174 | – | 8 (≈ 9.2 µM)
isolate (source animal id): 175 | > 16 | 8 (≈ 9.2 µM)
isolate (source animal id): 176 | – | 8 (≈ 9.2 µM)
isolate (source animal id): 177 | 16 (≈ 18.4 µM) | 8 (≈ 9.2 µM)
isolate (source animal id): 178 | – | 4 (≈ 4.6 µM)
isolate (source animal id): 179 | – | 4 (≈ 4.6 µM)
isolate (source animal id): 181 | 8 (≈ 9.2 µM) | –
isolate (source animal id): 182 | 16 (≈ 18.4 µM) | 16 (≈ 18.4 µM)
isolate (source animal id): 183 | 8 (≈ 9.2 µM) | –
isolate (source animal id): 187 | 16 (≈ 18.4 µM) | –
isolate (source animal id): 190 | 8 (≈ 9.2 µM) | –
isolate (source animal id): 192 | – | 4 (≈ 4.6 µM)
isolate (source animal id): 193 | – | 8 (≈ 9.2 µM)
isolate (source animal id): 194 | 8 (≈ 9.2 µM) | –
isolate (source animal id): 195 | 8 (≈ 9.2 µM) | 8 (≈ 9.2 µM)
isolate (source animal id): 196 | – | 8 (≈ 9.2 µM)
isolate (source animal id): 197 | 8 (≈ 9.2 µM) | 16 (≈ 18.4 µM)
isolate (source animal id): 198 | – | > 16
isolate (source animal id): 199 | – | 8 (≈ 9.2 µM)
isolate (source animal id): 200 | – | 4 (≈ 4.6 µM)
isolate (source animal id): 201 | – | 8 (≈ 9.2 µM)
isolate (source animal id): 203 | – | 4 (≈ 4.6 µM)
isolate (source animal id): 204 | – | 8 (≈ 9.2 µM)
isolate (source animal id): 205 | – | > 16
isolate (source animal id): 206 | – | 8 (≈ 9.2 µM)
isolate (source animal id): 207 | – | 8 (≈ 9.2 µM)
isolate (source animal id): 208 | – | 4 (≈ 4.6 µM)
isolate (source animal id): 209 | – | 4 (≈ 4.6 µM)
isolate (source animal id): 210 | – | > 16
isolate (source animal id): 211 | 8 (≈ 9.2 µM) | –
isolate (source animal id): 213 | – | 8 (≈ 9.2 µM)
isolate (source animal id): 214 | 8 (≈ 9.2 µM) | –
isolate (source animal id): 216 | – | 8 (≈ 9.2 µM)
isolate (source animal id): 222 | 8 (≈ 9.2 µM) | –
isolate (source animal id): 223 | 8 (≈ 9.2 µM) | > 16
isolate (source animal id): 227 | – | 4 (≈ 4.6 µM)
isolate (source animal id): 228 | > 16 | –
isolate (source animal id): 229 | – | > 16
isolate (source animal id): 230 | > 16 | –
isolate (source animal id): 233 | – | > 16
isolate (source animal id): 234 | – | > 16
isolate (source animal id): 235 | > 16 | –
isolate (source animal id): 236 | 8 (≈ 9.2 µM) | –
isolate (source animal id): 237 | – | > 16
isolate (source animal id): 239 | 4 (≈ 4.6 µM) | –
isolate (source animal id): 241 | > 16 | > 16
isolate (source animal id): 244 | 16 (≈ 18.4 µM) | –
isolate (source animal id): 245 | – | > 16
isolate (source animal id): 246 | 16 (≈ 18.4 µM) | –
isolate (source animal id): 247 | > 16 | > 16
isolate (source animal id): 250 | 16 (≈ 18.4 µM) | > 16
isolate (source animal id): 252 | > 16 | –
isolate (source animal id): 254 | – | > 16
isolate (source animal id): 255 | – | > 16
isolate (source animal id): 258 | – | 8 (≈ 9.2 µM)
isolate (source animal id): 261 | – | > 16
isolate (source animal id): 262 | – | > 16
isolate (source animal id): 268 | > 16 | –
isolate (source animal id): 269 | – | 8 (≈ 9.2 µM)
isolate (source animal id): 270 | – | > 16
isolate (source animal id): 274 | – | > 16
isolate (source animal id): 275 | – | > 16
isolate (source animal id): 276 | – | > 16
isolate (source animal id): 277 | – | 8 (≈ 9.2 µM)
isolate (source animal id): 278 | – | > 16
isolate (source animal id): 279 | – | > 16
isolate (source animal id): 280 | – | > 16
isolate (source animal id): 282 | 8 (≈ 9.2 µM) | –
isolate (source animal id): 284 | – | > 16
isolate (source animal id): 285 | > 16 | > 16
isolate (source animal id): 287 | – | > 16
isolate (source animal id): 289 | 16 (≈ 18.4 µM) | –
isolate (source animal id): 290 | 8 (≈ 9.2 µM) | > 16
isolate (source animal id): 294 | – | > 16
isolate (source animal id): 295 | – | > 16
isolate (source animal id): 296 | 8 (≈ 9.2 µM) | > 16
isolate (source animal id): 298 | 4 (≈ 4.6 µM) | –
isolate (source animal id): 301 | 8 (≈ 9.2 µM) | –
isolate (source animal id): 307 | – | > 16
isolate (source animal id): 310 | > 16 | > 16
isolate (source animal id): 311 | – | > 16
isolate (source animal id): 312 | – | > 16
isolate (source animal id): 313 | – | > 16
isolate (source animal id): 315 | – | > 16
isolate (source animal id): 316 | – | > 16
isolate (source animal id): 320 | 8 (≈ 9.2 µM) | –
isolate (source animal id): 331 | 8 (≈ 9.2 µM) | –
isolate (source animal id): 333 | 8 (≈ 9.2 µM) | –
isolate (source animal id): 341 | > 16 | –
